Results published in the NIST ThermoML archive (doi:10.1021/acs.jced.5b00944).

Test: xn = mol fraction of the nth substance listed
Conditions: for viscosity / speed of sound / mass density: 100 kPa, Liquid; for viscosity: Capillary tube (Ostwald / Ubbelohde) method; for speed of sound: Sing-around technique in a fixed-path interferometer; for mass density: Vibrating tube method; for surface tension liquid-gas: Capillary rise

CCCC[N+]1(C)CCCC1.N#CN=C=[N-] [1-butyl-1-methylpyrrolidinium dicyanamide] + O
Conditions	mass density [kg/m3]	speed of sound [m/s]	surface tension liquid-gas [mN/m]	viscosity [mPa·s]
287.92 K, x2 = 0.0329	–	–	–	46.3
287.92 K, x2 = 0.0994	–	–	–	44.7
287.94 K, x2 = 0.2615	–	–	–	37.1
287.94 K, x2 = 0.4463	–	–	–	28.9
287.95 K, x2 = 0.6509	–	–	–	19.6
287.95 K, x2 = 0.751	–	–	–	14.4
287.97 K, x2 = 0.9	–	–	–	5.51
288.15 K, x2 = 0	1019.11	1834.4	–	–
288.15 K, x2 = 0.0329	1019.02	1834.2	–	–
288.15 K, x2 = 0.0993	1018.74	1833.5	–	–
288.15 K, x2 = 0.2615	1018.26	1832.2	–	–
288.15 K, x2 = 0.4463	1017.61	1832.1	–	–
288.15 K, x2 = 0.6509	1016.78	1831.3	–	–
288.15 K, x2 = 0.751	1016.44	1825	–	–
288.15 K, x2 = 0.9	1012.13	1752.9	–	–
288.3 K, x2 = 0.0329	–	–	51.9	–
288.8 K, x2 = 0.0994	–	–	52.4	–
288.8 K, x2 = 0.751	–	–	54.3	–
288.8 K, x2 = 0.9	–	–	54.3	–
288.9 K, x2 = 0.6509	–	–	50.6	–
289 K, x2 = 0.4463	–	–	51.8	–
289.1 K, x2 = 0.2615	–	–	52	–
297.5 K, x2 = 0.0329	–	–	51.4	–
297.6 K, x2 = 0.9	–	–	53.7	–
297.7 K, x2 = 0.4463	–	–	51.5	–
297.8 K, x2 = 0.0994	–	–	52	–
297.8 K, x2 = 0.751	–	–	53.3	–
297.9 K, x2 = 0.2615	–	–	51.6	–
297.9 K, x2 = 0.6509	–	–	50.1	–
297.93 K, x2 = 0.0329	–	–	–	31.9
297.93 K, x2 = 0.4463	–	–	–	20
297.94 K, x2 = 0.2615	–	–	–	26.1
297.95 K, x2 = 0.0994	–	–	–	31.1
297.95 K, x2 = 0.751	–	–	–	10
297.96 K, x2 = 0.6509	–	–	–	13.4
297.96 K, x2 = 0.9	–	–	–	3.93
298.15 K, x2 = 0	1013.48	1809.6	–	–
298.15 K, x2 = 0.0329	1013.44	1809.6	–	–
298.15 K, x2 = 0.0993	1013.07	1808.5	–	–
298.15 K, x2 = 0.2615	1012.53	1807.6	–	–
298.15 K, x2 = 0.4463	1011.78	1808.1	–	–
298.15 K, x2 = 0.6509	1010.69	1808.3	–	–
298.15 K, x2 = 0.751	1010.21	1803.2	–	–
298.15 K, x2 = 0.9	1006.14	1740.1	–	–
305.2 K, x2 = 0.2615	–	–	51	–
305.5 K, x2 = 0.0994	–	–	51.7	–
305.5 K, x2 = 0.751	–	–	52.6	–
305.6 K, x2 = 0.4463	–	–	51	–
305.6 K, x2 = 0.9	–	–	52.9	–
306 K, x2 = 0.0329	–	–	50.8	–
306 K, x2 = 0.6509	–	–	49.8	–
307.99 K, x2 = 0.4463	–	–	–	14.6
308 K, x2 = 0.0329	–	–	–	23.1
308.01 K, x2 = 0.0994	–	–	–	22.5
308.02 K, x2 = 0.751	–	–	–	7.24
308.02 K, x2 = 0.9	–	–	–	2.98
308.03 K, x2 = 0.2615	–	–	–	19
308.03 K, x2 = 0.6509	–	–	–	9.74
308.15 K, x2 = 0	–	1785.2	–	–
